The text below walks through data of patent US10894803B2, “Multi-functionalized polysaccharide compounds and use thereof for targeting the cation-independent mannose 6-phosphate receptor” (NANOMEDSYN, priority 2015, dated 2021).

Where two headings read alike, the source gives them in different places.

The target of one test is CI-M6PR (Homo sapiens (Human), UniProt P11717). Put plainly: Competitive binding of M6P analogs to biotinylated CI-M6PR on adsorbed pentamannose 6-phosphate (PMP). Conditions: for Relative affinity: relative to M6C-Ethyl-NH2 taken as reference = 1. Here is the method: 96-Well plates (Maxisorp Nunc) are incubated overnight at 4° C. with 200 μl of PMP (pentamannose 6-phosphate) at the concentration of 200 μg·ml^−1, in carbonate buffer (NaHCO3/Na2CO3 at 0.1M, pH 9.6). The following day, the solution containing the residual PMP is discarded and the wells are saturated, for 1 h at ambient temperature, with 360 μl of 1% gelatin (Type A from Porcine Skin) diluted in PBS (1.9 mM NaH2PO4, 8.1 mM Na2PO4 and 154 mM NaCl, pH 7.4). The wells are then rinsed five times with PBS to which 0.2% gelatin has been added. All the washes and also the dilutions are carried out in the solution of PBS to which 0.2% gelatin has been added. The M6P analogs to be tested at the various concentrations (from 10^−2 to 10^−7 M) are pre-incubated in the presence of pre-biotinylated CI-M6PR (M6PRb) ([…]) for 20 min, then 200 μl of the mixture are incubated in the wells for 2 h, at ambient temperature. After three washes, the wells are incubated for 1 h with a streptavidin-peroxidase solution (250 μl per well; 3.10^−8 M). After three more washes, 200 μl of a solution of OPD (o-phenylenediamine, 1 mg·ml^−1 in citrate buffer, pH 5.0, and 1 μl 30% H2O2.ml^−1; Sigma Aldrich) are added. After incubation for 20 min in the dark at ambient temperature, the optical densities are measured at the wavelength of 450 nm.
Sequence of CI-M6PR (P11717 41-2491): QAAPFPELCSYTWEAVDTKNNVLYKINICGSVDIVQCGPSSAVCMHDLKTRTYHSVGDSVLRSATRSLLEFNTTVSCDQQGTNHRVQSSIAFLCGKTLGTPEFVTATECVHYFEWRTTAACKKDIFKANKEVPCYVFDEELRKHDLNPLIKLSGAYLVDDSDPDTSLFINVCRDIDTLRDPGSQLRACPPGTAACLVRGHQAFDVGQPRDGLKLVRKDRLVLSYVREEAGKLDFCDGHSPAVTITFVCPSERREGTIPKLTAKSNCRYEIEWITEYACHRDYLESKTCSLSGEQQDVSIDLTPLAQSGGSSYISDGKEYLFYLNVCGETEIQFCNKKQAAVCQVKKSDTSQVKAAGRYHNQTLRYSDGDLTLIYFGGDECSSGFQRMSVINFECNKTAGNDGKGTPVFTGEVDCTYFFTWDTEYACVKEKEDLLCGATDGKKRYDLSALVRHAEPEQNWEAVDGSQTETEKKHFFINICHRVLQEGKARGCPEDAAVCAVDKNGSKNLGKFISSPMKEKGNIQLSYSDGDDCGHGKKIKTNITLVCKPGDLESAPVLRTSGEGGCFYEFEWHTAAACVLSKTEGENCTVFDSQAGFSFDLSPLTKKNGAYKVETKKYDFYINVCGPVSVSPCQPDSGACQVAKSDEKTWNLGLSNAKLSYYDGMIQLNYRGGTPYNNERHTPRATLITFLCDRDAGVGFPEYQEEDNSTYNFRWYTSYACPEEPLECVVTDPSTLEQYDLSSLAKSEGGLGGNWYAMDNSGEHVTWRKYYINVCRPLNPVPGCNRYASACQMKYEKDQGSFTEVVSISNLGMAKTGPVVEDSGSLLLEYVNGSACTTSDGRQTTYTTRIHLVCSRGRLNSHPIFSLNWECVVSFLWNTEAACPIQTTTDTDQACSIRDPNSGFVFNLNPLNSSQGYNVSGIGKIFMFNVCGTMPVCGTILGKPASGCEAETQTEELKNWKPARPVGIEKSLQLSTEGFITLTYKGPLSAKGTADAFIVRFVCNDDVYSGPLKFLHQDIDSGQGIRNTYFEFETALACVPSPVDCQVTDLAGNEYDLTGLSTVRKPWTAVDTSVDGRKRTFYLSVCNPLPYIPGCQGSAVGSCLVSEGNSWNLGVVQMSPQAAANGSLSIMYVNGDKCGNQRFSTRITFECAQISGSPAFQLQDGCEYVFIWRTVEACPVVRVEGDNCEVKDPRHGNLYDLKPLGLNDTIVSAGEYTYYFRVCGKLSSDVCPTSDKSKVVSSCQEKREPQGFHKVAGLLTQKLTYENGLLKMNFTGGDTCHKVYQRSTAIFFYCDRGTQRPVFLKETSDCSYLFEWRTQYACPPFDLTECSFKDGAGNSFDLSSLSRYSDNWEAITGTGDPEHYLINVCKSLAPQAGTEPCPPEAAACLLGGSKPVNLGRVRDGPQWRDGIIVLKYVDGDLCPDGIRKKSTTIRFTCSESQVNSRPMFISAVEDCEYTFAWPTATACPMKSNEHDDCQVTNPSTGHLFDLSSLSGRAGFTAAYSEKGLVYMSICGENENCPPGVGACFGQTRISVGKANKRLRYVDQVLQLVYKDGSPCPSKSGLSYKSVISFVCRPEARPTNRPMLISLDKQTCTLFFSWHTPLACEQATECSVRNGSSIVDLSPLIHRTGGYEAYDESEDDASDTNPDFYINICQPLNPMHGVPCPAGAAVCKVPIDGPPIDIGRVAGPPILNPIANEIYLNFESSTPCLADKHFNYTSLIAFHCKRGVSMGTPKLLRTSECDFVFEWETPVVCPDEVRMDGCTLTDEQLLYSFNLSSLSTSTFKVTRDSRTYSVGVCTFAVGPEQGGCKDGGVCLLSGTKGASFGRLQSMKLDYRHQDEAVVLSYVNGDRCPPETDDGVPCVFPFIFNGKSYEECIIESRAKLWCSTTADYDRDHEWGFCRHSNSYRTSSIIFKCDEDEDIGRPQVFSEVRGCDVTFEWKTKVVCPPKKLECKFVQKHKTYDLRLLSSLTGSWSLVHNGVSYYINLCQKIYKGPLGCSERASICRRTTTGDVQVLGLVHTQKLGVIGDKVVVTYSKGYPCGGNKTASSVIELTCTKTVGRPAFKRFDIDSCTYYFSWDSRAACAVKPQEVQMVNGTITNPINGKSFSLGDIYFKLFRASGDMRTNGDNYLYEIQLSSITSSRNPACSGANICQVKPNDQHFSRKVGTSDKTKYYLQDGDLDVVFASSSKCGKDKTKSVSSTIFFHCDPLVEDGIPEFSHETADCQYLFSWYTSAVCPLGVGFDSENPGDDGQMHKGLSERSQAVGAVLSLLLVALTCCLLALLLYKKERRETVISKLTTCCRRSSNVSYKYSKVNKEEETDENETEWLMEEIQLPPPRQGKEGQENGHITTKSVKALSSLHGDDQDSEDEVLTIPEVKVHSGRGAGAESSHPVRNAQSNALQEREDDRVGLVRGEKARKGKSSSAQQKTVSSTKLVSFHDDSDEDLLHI
The conjugate of formula (III) is evaluated for its affinity with CI-M6PR. The binding affinity of rhGAA and of the rhGAA-M6Pn-α(1,2)-Man-Ethyloxyamino conjugate (28) was evaluated by means of a competitive binding technique with CI-M6PR described in example 2 and compared with the affinity of M6P.

Test [1] relates to myoblasts from an adult patient suffering from Pomp disease. Description: Cellular maturation of internalized GAA by Western blot. Format: cell-based, human. The note with it: 50 nM, 48 h incubation, healthy subject myoblasts = 100%. As for the experimental part:
The myoblasts are incubated for 48 h in the presence of 50 nM rhGAA or of the rhGAA-M6Pn-α(1,2)-Man-Ethyloxyamino conjugate (28) (conjugate of formula (III)), then lysed and the proteins are extracted. The cellular maturation of the internalized GAA enzyme in the myoblasts of patients suffering from Pomp disease is studied by the SDS polyacrylamide gel separation technique, followed by immunodetection of the GAA by Western blot with an anti-human GAA antibody (anti-LYAG, Genetex) or an anti-human actin antibody (Invitrogen). […] This experiment is representative among two experiments. The thick arrow in FIG. 4 indicates the intermediate form of GAA. The black arrow indicates the mature form of GAA (60-70 kDa).
The mature form of 60 kDa is quantified by considering the band present in the myoblasts originating from a healthy subject to be 100%. The expression of GAA 60 kDa in the patient myoblasts corresponds to 1% of the GAA of a healthy subject and is not increased in the myoblasts treated with rhGAA. Conversely, the treatment with the rhGAA-M6Pn-α(1,2)-Man-Ethyloxyamino conjugate (28) increases the 60-70 kDa band to 47% of the GAA of a healthy subject. […] This activity is important for an application in the treatment of Pomp disease by enzyme therapy, but can also be applicable to all lysosomal diseases.

For test [2], the system named is myoblasts of patients suffering from the adult form of Pomp disease. Put plainly: Internalization: GAA catalytic activity (4-MUG substrate) in cell extracts of treated myoblasts. In kind it is cell-based, human. The note with it: 50 nM, 48 h incubation; compared with rhGAA. As for the experimental part: The myoblast-type cells originating from an adult patient suffering from Pomp disease are maintained in primary culture.
The catalytic activity of GAA is measured in the cell extracts using the synthetic substrate 4-methylumbelliferyl-α-D-glucopyranoside (4-MUG). This substrate and the molecular weight standards are obtained from Sigma. The GAA activity in the cell extracts (20 μl) is measured in a reaction volume of 75 μl containing 50 mM citric acid, 115 mM K2HPO4, 110 mM KCl, 10 mM NaCl, pH 5.0, with 6 mM 4-MUG, for 10 min at ambient temperature. The reaction is stopped with 75 μl of 0.1 M Tris HCl, pH 8. The fluorescence is read with an excitation filter at 355 nm and an emission filter at 460 nm in 96-well plates, and compared to a standard curve obtained with 4-methylumbelliferone. The catalytic activity is expressed per mg of protein. Mean±standard deviation.

[3] abbreviates: competitive binding technique of example 2, Example 4 experiments, read-out: 50% inhibitory concentration (IC50), affinity for CI-M6PR.
The mark [4] stands for this setting: inhibition of CI-M6PR binding to adsorbed PMP, Table 1, read-out: IC50.

Turning to `O=C[C@@H](O)[C@@H](O)[C@H](O)[C@H](O)COP(=O)(O)O` [Compound M6P, mannose 6-phosphate], the IC50 at CI-M6PR (setting [3]) worked out at 30 µM.
On to `NCCO[C@H]1O[C@H](CO)[C@@H](O)[C@H](O)[C@@H]1O[C@H]1O[C@H](CCC(=O)O)[C@@H](O)[C@H](O)[C@@H]1O` [Compound 24, aminoethyl 6,7-dideoxy-7-hydroxycarbonyl-α-D-manno-heptopyranosyl-(1→2)-α-D-mannopyranoside], for which the IC50 on CI-M6PR (setting [4]) is 17 µM. Further, at CI-M6PR, the Relative affinity worked out at 5.8.
In the case of `NCCO[C@H]1OC(CCP(=O)(O)O)[C@@H](O)[C@H](O)C1O` (stereo partly drawn) [M6Pn-Ethyl-NH2], the IC50 at CI-M6PR (setting [4]) was 29 µM. In addition, the Relative affinity at CI-M6PR was 3.4.
For `NCCO[C@H]1OC(CCC(=O)O)[C@@H](O)[C@H](O)C1O` (stereo partly drawn) [M6C-Ethyl-NH2] the same measures were 99 µM and 1.
For “rhGAA-M6Pn-α(1,2)-Man-Ethyloxyamino (28): rhGAA functionalized on oligosaccharide chains with phosphonate disaccharide analog 28; conjugate of formula (III)”, in test [1], the “mature form of GAA (60-70 kDa band), % of the GAA of a healthy subject” value is 47%. Moreover, the “cell penetration of GAA measured through catalytic activity on 4-MUG” value in test [2] was “significantly increases”.
Turning to “rhGAA: recombinant human acid alpha-glucosidase produced in CHO cells, approximately 110 000 Da”, in test [1], the “mature form of GAA (60-70 kDa band), % of the GAA of a healthy subject” value is “not increased”. The IC50 in the test with CI-M6PR (setting [3]) worked out at 0.3 µM. Also, the “affinity for CI-M6PR, times lower than the rhGAA-M6Pn-α(1,2)-Man-Ethyloxyamino conjugate (28)” value with CI-M6PR (ratio of IC50 values) came out at 5.5 times.
